Measured values taken from the METLIN SMRT retention time set (Domingo-Almenara et al. 2019).

Assay: gradient 5% acetonitrile 3 min, to 50% in 2 min, to 85% in 15 min, held 3 min, 100 µL/min
Conditions: column: Zorbax Extend-C18 2.1 x 50 mm; eluents: water / acetonitrile, 0.1% formic acid
Summary of the method: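 Data were gathered over 3 months by HPLC coupled to a quadrupole time-of-flight mass spectrometer, operated in positive and negative ionization mode. Mixtures of ~100 pure standards ran on a Zorbax Extend-C18 column (2.1 × 50 mm, 1.8 μm) at 100 μL/min, with water and acetonitrile each containing 0.1% formic acid and dead and dwell volumes of 40 μL and 900 μL. Retention time was read from adduct peaks picked by computer and checked manually.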

RP-LC retention time [s] | Compound
728 | Cc1cccc(OCc2ccc(-c3nc(C#N)c(NCCCN(C)C)o3)o2)c1
768 | CCCN(C)S(=O)(=O)c1cc(-c2nnc(C)o2)co1
1010 | Cc1ccc(N2C(=O)C3N=NN(Cc4nc(-c5ccccc5Br)no4)C3C2=O)cc1F (centres undefined)
519 | CN(C1CCOCC1)C1CCN(C(=O)CCc2nc3ccccc3[nH]2)CC1
690 | CCn1nnc2c(N3CCOCC3)nc(-c3ccc(NC(=O)Nc4ccc(C(=O)N5CCN(C)CC5)cc4)cc3)nc21
676 | COc1ccc(CNC(=O)Cc2cn(C)c3ncccc23)c(OC)c1
808 | CC(C)n1c(=O)sc2cc(S(=O)(=O)N3CCC(C(=O)NCc4cccnc4)CC3)ccc21
762 | Cc1cccc(N(C)C(=O)C(C)n2cnc3nc4c(cc3c2=O)CCCC4)c1 (centres undefined)
1260 | COc1ccc(-c2noc(C3(NC(=O)c4ccc(C(F)(F)F)cc4)CCCCC3)n2)cc1
662 | COC(=O)CNC(=O)NC(C)C(=O)N1CCc2ccccc21 (centres undefined)
765 | CCOc1ccc(-c2ccc(=O)n(CCNC(=O)c3cc(C)oc3C)n2)cc1
1220 | O=C(Nc1ccccc1)C1CCCN(S(=O)(=O)c2cc(-c3noc(C4CCCC4)n3)cs2)C1 (centres undefined)
603 | Cc1oc(-c2ccc(C(=O)NCCCN3CCOCC3)cc2)nc1CN1CCc2ccccc21
835 | COCCNc1c(-c2cccc(F)c2)nc2sc(C(=O)NC(C)C)c(C)n12
559 | CCCS(=O)(=O)N1CC(N(C)Cc2cccnc2)C1
578 | O=C(Cn1nc(Cc2cccnc2)c2ccccc2c1=O)N1CCN(C(=O)c2ccco2)CC1
707 | Cn1c(C(=O)NCCCN2CCC(Cc3ccccc3)CC2)cc2c(=O)n(C)c3ccccc3c21
1280 | CC(C)(C)c1csc(-c2csc(S(=O)(=O)NCc3ccc(F)c(Cl)c3)c2)n1
677 | Cc1sc(NC(=O)c2ccccc2)c(C(=O)NCCN(C)C)c1C
678 | Cn1c(=O)n(CCN2CCCCC2)c(=O)c2c1nc1n2CCCN1c1ccc(Br)cc1
837 | COCCN1C(=O)c2cc3ccsc3n2CC1(C)C(=O)NCc1ccc(Cl)cc1 (centres undefined)
691 | CCc1nc(N2CCC(C(=O)NCc3cc(OC)ccc3OC)CC2)c2c(C)scc2n1
636 | CC(C)n1cnc(S(=O)(=O)N2CCC(C(=O)N3CCN(C(=O)c4ccco4)CC3)CC2)c1

RP-LC retention time [s] | Compound
766 | Cc1ccc(CNC(=O)CN2CCN(Cc3ccc(F)cc3)C2=O)o1
929 | CC(C)C(=O)NCC(c1ccccc1Cl)c1c[nH]c2ccccc12 (centres undefined)
750 | COc1ccc(CN2CC3(CCN(S(=O)(=O)c4cccnc4)CC3)C2=O)cc1
883 | Cc1cc(C)nc(SCc2cc(=O)c(OC(=O)c3cccc([N+](=O)[O-])c3C)co2)n1
814 | CC(C)(C)C(=O)Nc1nc(CC(=O)NCCC2=CCCCC2)cs1
998 | Cc1nc2cc(-c3noc(-c4ccc5ccccc5n4)n3)ccc2o1
601 | CN1CCC(OC2CCN(C(=O)c3ccc(Cl)cc3)CC2)CC1
996 | Cc1noc(-c2cc(=O)n(CC(=O)Nc3cccc(C(C)C)c3)c3ccccc23)n1
845 | CCOc1ccc(N2C=C(C(=O)N3CCOCC3)S(=O)(=O)c3ccc(F)cc32)cc1
878 | CC(C)c1cccc(NC(=O)Cn2ccc3sccc3c2=O)c1
1150 | Cc1cccc(Sc2nccnc2N2CCC(C(=O)NC3CCCCC3)CC2)c1
970 | Cc1ccc2c(c1)OCC(=O)N2Cc1nc(-c2ccc(F)cc2)no1
922 | CCC(CC)C(=O)Nc1nc(-c2ccc3c(c2)NC(=O)C(C)O3)c(C)s1 (centres undefined)
902 | COc1cccc(-c2csc(Nc3ccc(C)cn3)n2)c1
690 | COC(=O)c1ccc(NC(=O)Cn2cnc3nc(N4CCCC4)ncc3c2=O)cc1
925 | c1coc(-c2nnc(-c3cc4ccccc4o3)o2)c1
559 | Cc1ccnc(N2CCC(C(=O)NCCCN3CCCCC3)CC2)n1
762 | Cc1[nH]c(C)c(S(=O)(=O)N2CCC(C(=O)N(C)C3CCCCC3)CC2)c1C(=O)N1CCCCC1
795 | O=C1CCCc2cc(S(=O)(=O)N3CCC(C(=O)NC4CCCc5ccccc54)CC3)ccc2N1 (centres undefined)
770 | CCOC(=O)c1c(C)[nH]c(C(=O)N2CCCC(C(=O)NCc3ccc4c(c3)OCO4)C2)c1C (centres undefined)
817 | CCc1cc(=O)oc2cc(C)cc(OC(C)C(=O)N3CCC4(O)CCCCC4C3)c12 (centres undefined)
661 | O=C(c1ccc(Nc2nc3ccccc3n3nnnc23)cc1)N1CCN(c2ccccn2)CC1
612 | CC(=O)NCc1csc(C2CCCN(C(=O)c3cccn3C)C2)n1 (centres undefined)

RP-LC retention time [s] | Compound
797 | O=C(CC1CCCC1)N1CCN(c2nnc3ccc(C(F)(F)F)cn23)CC1
964 | CCCOc1ccc(C2C(C(=O)N3CCOCC3)=C(C)NC3=C2C(=O)CCC3)cc1OC (centres undefined)
757 | CCC(C)NC(=O)C1CCN(S(=O)(=O)c2ccc3c(c2)sc(=O)n3C)CC1 (centres undefined)
652 | O=C(Nc1cccn2cnnc12)c1ccccn1
765 | COc1cc2c(cc1OC)-c1cc(=Nc3c(C)cc(C)cc3C)n(C)c(=O)n1CC2
542 | CNC(=O)c1c2c(nc3ccccc13)CCC2
649 | O=C(CCc1ccccc1)Nc1cnn(-c2ncncc2N2CCOCC2)c1
592 | CCc1nnc(-c2ccc(S(=O)(=O)N3CCN(C(C)C)CC3)o2)o1
1110 | O=C(Cc1ccccc1F)N1CCCC1c1nc(-c2cccc(C(F)(F)F)c2)no1 (centres undefined)
738 | CNC(=O)N1CCc2c(c(-c3nc(-c4cccc(F)c4)no3)nn2C)C1
985 | CCN(CC)C(=O)Cn1c(=O)c2cnc(-c3ccc(C)cc3)nc2n(C)c1=O
818 | Cc1[nH]c(C(=O)N2CCC(CC(=O)NCc3ccc(F)cc3)CC2)c(C)c1C(=O)OC(C)C
961 | Cc1cccc(-c2nnc(-c3cc(S(=O)(=O)N4CCOCC4)ccc3F)o2)c1
757 | O=C(CCSc1ccccc1)NCC1CCN(C(=O)COc2ccccc2)CC1
650 | CC1CCc2onc(C(=O)N3CCN(c4ccccn4)CC3)c2C1 (centres undefined)
863 | Cc1cc(N2CCN(c3ccccc3)CC2)n2nc(-c3cccnc3)nc2n1
660 | C[C@]12C=CC(=O)C=C1[C@@H](F)C[C@H]1[C@@H]3CC[C@](O)(C(=O)CO)[C@@]3(C)C[C@H](O)[C@@]12F
727 | Cc1ccc(S(=O)(=O)NCCSc2ncccn2)cc1
755 | O=C(CN1CCc2ccccc2C1C(=O)N1CCCCC1)NCc1ccccn1 (centres undefined)
699 | O=c1oc2cc(O)cc(O)c2c2ccccc12
780 | COc1cccc(NC(=O)N2CCC3(CC2)NC(=O)c2cc(Cl)ccc2N3C)c1
900 | COc1cccc(CC2C(=O)Nc3ccc(Cl)cc32)c1OC (centres undefined)
803 | Cc1noc(C)c1CCNC(=O)CCCn1c(=O)c2cccn2c2ccc(Br)cc21

RP-LC retention time [s] | Compound
857 | CCN(CC)C(=O)CN1C(=O)C2(NC(C)C3C(=O)N(Cc4ccccc4)C(=O)C32)c2ccccc21 (centres undefined)
918 | Cc1cccc(S(=O)(=O)N(C)CC2(C)CCOCC2)c1
872 | Cc1nn(CC(=O)NCc2ccc(F)cc2)c(=O)c2nc(-c3ccccc3)sc12
575 | O=S(=O)(NCC1CCN(Cc2ccco2)CC1)c1ccc(F)c(Cl)c1
924 | Cc1ccc(-n2ccn3cc(-c4ccc(F)cc4)nc3c2=O)cc1Cl
703 | O=C(CSCc1ccccc1)NCC1CCN(c2ncccn2)CC1
972 | COC(=O)c1sc2ncccc2c1NC(=O)c1cccc(C)c1
755 | O=C(c1[nH]nc2c1CCc1ccccc1-2)N1CCC(c2noc(-c3ccncc3)n2)C1 (centres undefined)
704 | CCCn1cc(CCNC(=O)Nc2ccc3c(c2)OCCO3)c2cccnc21
675 | CCc1nnc(NC(=O)C2CCN(C(=O)c3ccccc3F)CC2)s1
856 | CC(=O)N(Cc1nn(C)c2c1CN(S(=O)(=O)c1cc(C)ccc1C)CC2)c1ccccc1
595 | O=C(Cn1ccnc1-c1ccnc(N2CCCC2)c1)NC1CCCCC1
920 | O=C(c1ccc(F)c(F)c1)N1CCC2(CC1)N=C(c1ccc(Cl)cc1)NO2
695 | COc1ccc(NC(=O)CSc2nc(N3CCCCC3)nc3ccccc23)cc1
854 | COc1ccc(OC)c(CNC(=O)c2nnc(-c3ccc(S(=O)(=O)N(C)C)cc3)o2)c1
1020 | CC1(C(=O)NCc2ccc(F)cc2)CN(S(=O)(=O)c2ccccc2)CC(=O)N1C1CCCCC1 (centres undefined)
641 | Cc1cc(NC(=O)N2CCN(CCn3c(C)nc4cccnc43)CC2)ccc1Br
713 | Cc1ccc(-c2ncccc2CNS(=O)(=O)c2cccc(F)c2)cc1
704 | CN1CCCn2cc(S(=O)(=O)NCc3ccccc3Cl)cc2C1=O
873 | CCOc1cn(-c2ccc(F)cc2)nc1C(=O)NCc1cccs1
